From patent US8536187B2 (Gilead Sciences, Inc., priority 2008, dated 2013)

Columns and labels:
[1] = CC50 assay (CellTiter-Glo) in Huh-7 HCV replicon cells; format: cell-based; conditions: human
How it was run: (§1)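 Cytotoxicity (CC50) read by CellTiter-Glo luminescence after 10 min, and antiviral EC50 by luciferase signal after 30 min lysis with substrate, both at room temperature. Preceding step: 3-day exposure of 6000 Huh-7 HCV replicon cells per well to compound dilution series at 37° C, 5% CO2, in 0.5% DMSO.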

[2] = test system: HCV replicon in human hepatoma Huh-7 cell line; assay: Anti-HCV replicon assay, EC50 (luciferase luminescence); format: cell-based; conditions: Hepatitis C virus, Huh-7, 72 h
How it was run: as §1

Structure (SMILES)	CC50 at 3 days ([1]; Table 2, 3 days incubation) [µM]	EC50 [2] [µM]	CC50 at 3 days ([1]; Table 1, 3 days incubation) [µM]
NS(=O)(=O)c1cccc(CNc2nc(NC3(C(F)(F)F)CC3)c3nc(-c4ccc(F)cc4)ccc3n2)c1 [Example 116, 3-((6-(4-fluorophenyl)-4-(1-(trifluoromethyl)cyclopropyl-amino)pyrido[3,2-d]pyrimidin-2-ylamino)methyl)benzene-sulfonamide]	> 10	< 0.1	–
CC(Nc1nc(NCC(F)(F)F)c2nc(-c3cccc(S(C)(=O)=O)c3)ccc2n1)c1ccc(-n2cncn2)cc1 (stereo not shown) [Example 19, 6-(3-Methanesulfonyl-phenyl)-N2-[1-(4-[1,2,4]triazol-1-yl-phenyl)-ethyl]-N4-(2,2,2-trifluoro-ethyl)-pyrido[3,2-d]pyrimidine-2,4-diamine]	–	< 0.1	10 to 25
CC(C)Oc1ccc(-c2ccc3nc(NCc4ccc(-n5cccn5)cc4)nc(NCC(F)(F)F)c3n2)cn1 [Example 242, N^2-(4-(1H-pyrazol-1-yl)benzyl)-6-(6-isopropoxypyridin-3-yl)-N^4-(2,2,2-trifluoroethyl)pyrido [3,2-d]pyrimidine-2,4-diamine]	1 to 10	< 0.1	–
C[C@@H](Nc1nc(NCC(F)(F)F)c2nc(C#CC(C)(C)O)ccc2n1)c1ccc(S(N)(=O)=O)cc1 [Example 276, (R)-4-(1-(6-(3-hydroxy-3-methylbut-1-ynyl)-4-(2,2,2-trifluoroethylamino)pyrido [3,2-d]pyrimidin-2-ylamino)ethyl)benzenesulfonamide]	> 10	0.25 to 2	–
[2H]C([2H])([2H])C([2H])([2H])Oc1ccc(-c2ccc3nc(N[C@H](C)c4ccc(-n5cncn5)cc4)nc(NCC(F)(F)F)c3n2)cn1 [Example 255, N^2-((R)-1-(4-(1H-1,2,4-triazol-1-yl)phenyl)ethyl)-6-(6-pentadeuteroethoxypyridin-3-yl)-N^4-(2,2,2-trifluoroethyl) pyrido[3,2-d]pyrimidine-2,4-diamine]	1 to 10	< 0.1	–
NS(=O)(=O)c1cc(CNc2nc(NC3(C(F)(F)F)CC3)c3nc(-c4ccc(F)cc4)ccc3n2)ccc1C(F)(F)F [Example 118, 5-((6-(4-fluorophenyl)-4-(1-(trifluoromethyl)cyclopropyl-amino)pyrido[3,2-d]pyrimidin-2-ylamino)methyl)-2-(trifluoro-methyl)benzenesulfonamide]	> 10	0.25 to 2	–
NS(=O)(=O)c1ccc(CNc2nc(NC3(C(F)(F)F)CC3)c3nc(-c4ccc(F)cc4)ccc3n2)cc1 [Example 23, 4-{[6-(4-fluoro-phenyl)-4-(1-trifluoromethyl-cyclopropylamino)-pyrido[3,2-d]pyrimidin-2-ylamino]-methyl}-benzenesulfonamide]	1 to 10	< 0.1	–
CS(=O)(=O)Nc1cc(F)cc(CNc2nc(NC3(C(F)(F)F)CC3)c3nc(-c4ccc(F)cc4)ccc3n2)c1 [Example 107, N-(3-fluoro-5-((6-(4-fluorophenyl)-4-(1-(trifluoromethyl)cyclopropyl-amino)pyrido[3,2-d]pyrimidin-2-ylamino)methyl)phenyl)methane-sulfonamide]	> 10	0.25 to 2	–
C[C@@H](Nc1nc(NCC(F)(F)F)c2nc(-c3ccc(Cl)c(S(C)(=O)=O)c3)ccc2n1)c1ccc(S(N)(=O)=O)cc1 [Example 155, 4-((R)-1-(6-(4-chloro-3-(methylsulfonyl)phenyl)-4-(2,2,2-trifluoroethylamino)pyrido[3,2-d]pyrimidin-2-ylamino)ethyl)benzene-sulfonamide]	1 to 10	< 0.1	–
Cc1cc(S(N)(=O)=O)ccc1[C@@H](C)Nc1nc(NC2(C(F)(F)F)CC2)c2nc(-c3ccc(F)cc3)ccc2n1 [Example 117, (R)-4-(1-(6-(4-fluorophenyl)-4-(1-(trifluoromethyl)cyclopropyl-amino)pyrido[3,2-d]pyrimidin-2-ylamino)ethyl)-3-methylbenzene-sulfonamide]	> 10	< 0.1	–
COc1ccc(-c2ccc3nc(NC(C)C#CC4CC4)nc(NCC(F)(F)F)c3n2)cc1S(N)(=O)=O (stereo not shown) [Example 239, 5-(2-(4-cyclopropylbut-3-yn-2-ylamino)-4-(2,2,2-trifluoroethylamino)pyrido [3,2-d]pyrimidin-6-yl)-2-methoxybenzenesulfonamide]	1 to 10	< 0.1	–
NS(=O)(=O)c1ccc(CNc2nc(NCC(F)(F)F)c3nc(C#CC4CC4)ccc3n2)cc1 [Example 279, 4-((6-(2-cyclopropylethynyl)-4-(2,2,2-trifluoroethylamino)pyrido[3,2-d]pyrimidin-2-ylamino)methyl)benzene-sulfonamide]	> 10	0.1 to 0.25	–
C[C@@H](Nc1nc(NC2(C(F)(F)F)CC2)c2nc(-c3ccc(F)cc3)ccc2n1)c1ccc(S(N)(=O)=O)c(C(F)(F)F)c1 [Example 119, (R)-4-(1-(6-(4-fluorophenyl)-4-(1-(trifluoromethyl)cyclo-propylamino)pyrido[3,2-d]pyrimidin-2-ylamino)ethyl)-2-(trifluoromethyl)benzene-sulfonamide]	> 10	0.25 to 2	–
COc1ccc(-c2ccc3nc(NCc4ccc(S(N)(=O)=O)cc4)nc(NC(C(F)(F)F)C(F)(F)F)c3n2)cc1S(C)(=O)=O [Example 151, 4-((4-(1,1,1,3,3,3-hexafluoropropan-2-ylamino)-6-(4-methoxy-3-(methylsulfonyl)phenyl)pyrido[3,2-d]pyrimidin-2-ylamino)methyl)benzene-sulfonamide]	1 to 10	< 0.1	–
CC(C)Oc1nc(NCc2ccc(-n3cncn3)cc2)nc2ccc(-c3ccc(OC(F)F)c(S(C)(=O)=O)c3)nc12 [Example 199, N-(4-(1H-1,2,4-triazol-1-yl)benzyl)-6-(4-(difluoromethoxy)-3-(methylsulfonyl)phenyl)-4-isopropoxypyrido[3,2-d] pyrimidin-2-amine]	> 10	< 0.1	–
Cc1ccc(-c2ccc3nc(NCc4ccc(S(N)(=O)=O)cc4)nc(NCC(F)(F)F)c3n2)cc1S(C)(=O)=O [Example 143, 4-((6-(4-methyl-3-(methylsulfonyl)phenyl)-4-(2,2,2-trifluoroethylamino)pyrido[3,2-d]pyrimidin-2-ylamino)methyl)benzene-sulfonamide]	> 10	< 0.1	–
C=Cc1ccc2nc(N[C@H](C)c3ccc(S(N)(=O)=O)cc3)nc(NCC(F)(F)F)c2n1 [Example 312, (R)-4-(1-(4-(2,2,2-trifluoro-ethylamino)-6-vinylpyrido [3,2-d]pyrimidin-2-ylamino)ethyl)benzenesulfonamide]	> 10	0.1 to 0.25	–
Cc1cc(S(N)(=O)=O)ccc1CNc1nc(NCC(F)(F)F)c2nc(-c3ccc(F)cc3)ccc2n1 [Example 4, 4-{[6-(4-Fluoro-phenyl)-4-(2,2,2-trifluoro-ethylamino)-pyrido[3,2-d]pyrimidin-2-ylamino]-methyl}-3-methyl-benzenesulfonamide]	–	0.25 to 2	> 25
COc1ccc(-c2ccc3nc(NCc4ccc(F)c(F)c4)nc(NCC(F)(F)F)c3n2)cc1S(C)(=O)=O [Example 161, N^2-(3,4-difluorobenzyl)-6-(4-methoxy-3-(methylsulfonyl)phenyl)-N^4-(2,2,2-trifluoroethyl) pyrido[3,2-d]pyrimidine-2,4-diamine]	> 10	< 0.1	–
COc1ccc(-c2ccc3nc(N[C@H](C)c4ccc(S(N)(=O)=O)cc4)nc(NCC(F)(F)F)c3n2)cc1S(C)(=O)=O [Example 145, 4-((R)-1-(6-(4-methoxy-3-(methylsulfonyl)phenyl)-4-(2,2,2-trifluoroethylamino)pyrido[3,2-d]pyrimidin-2-ylamino)ethyl)benzene-sulfonamide]	1 to 10	0.1 to 0.25	–
CCS(=O)(=O)c1cccc(-c2ccc3nc(N[C@H](C)c4ccc(-n5cncn5)cc4)nc(NCC(F)(F)F)c3n2)c1 [Example 182, N^2-((R)-1-(4-(1H-1,2,4-triazol-1-yl)phenyl)ethyl)-6-(3-(ethylsulfonyl)phenyl)-N^4-(2,2,2-trifluoroethyl)pyrido [3,2-d]pyrimidine-2,4-diamine]	1 to 10	< 0.1	–
CCOc1ccc(-c2ccc3nc(N[C@H](C)c4ccc(S(N)(=O)=O)cc4)nc(OC4(C)CC4)c3n2)cc1S(N)(=O)=O [Example 264, 4-((R)-1-(6-(4-ethoxy-3-(aminosulfonyl)phenyl)-4-(1-methylcyclopropoxy)pyrido [3,2-d]pyrimidin-2-ylamino)ethyl)benzenesulfonamide]	1 to 10	< 0.1	–
COCC#Cc1ccc2nc(NCc3ccc(S(N)(=O)=O)cc3)nc(NCC(F)(F)F)c2n1 [Example 283, 4-((6-(3-methoxyprop-1-ynyl)-4-(2,2,2-trifluoroethylamino)pyrido[3,2-d]pyrimidin-2-ylamino)methyl)benzene-sulfonamide]	> 10	0.1 to 0.25	–
C[C@@H](Nc1nc(OC2CC2)c2nc(C#CC3CC3)ccc2n1)c1ccc(S(N)(=O)=O)cc1 [Example 32, (R)-4-(1-(4-cyclopropoxy-6-(2-cyclopropylethynyl)pyrido[3,2-d]pyrimidin-2-ylamino)ethyl)benzenesulfonamide]	> 10	< 0.1	–
Cc1cc(S(N)(=O)=O)c(C)cc1CNc1nc(NC2(C(F)(F)F)CC2)c2nc(-c3ccc(F)cc3)ccc2n1 [Example 83, 4-((6-(4-fluorophenyl)-4-(1-(trifluoromethyl)cyclopropylamino)pyrido[3,2-d]pyrimidin-2-ylamino)methyl)-2.5-dimethylbenzenesulfonamide]	> 10	0.1 to 0.25	–
COc1ccc(-c2ccc3nc(NCc4cccc(-n5cncn5)c4)nc(NC4(C(F)(F)F)CC4)c3n2)cc1S(C)(=O)=O [Example 39, N^2-(3-(1H-1,2,4-triazol-1-yl)benzyl)-6-(4-methoxy-3-(methylsulfonyl)phenyl)-N^4-(1-(trifluoromethyl)cyclopropyl) pyrido[3,2-d]pyrimidine-2,4-diamine]	> 10	< 0.1	–
